Laboratory results from patent publication US20040224958A1, “Pyridopyrimidinone derivatives for treatment of neurodegenerative disease” (priority 2000, published 2004).
Where two headings read alike, the source gives them in different places.

What was measured:
Cdk5/p25 = Cdk5/p25 (Homo sapiens, UniProt Q00535); assay: Cyclin-Dependent Kinase 5 High Throughput Screening (cdk5-HTS) Assay; assay type: biochemical; settings: high throughput screen
In short: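 IC50 determined from 33P incorporation into GST-RbCOOH captured on glutathione plates and read by scintillation counting. Reaction: 1.0 μg/mL Cdk5/p25, 20 μM [γ33P]ATP, pH 7.4 Tris buffer with MgCl2 and DTT, 30 min at room temperature, stopped with EDTA.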

cdk2/cyclinE = cdk2/cyclinE (Homo sapiens, UniProt P24941); assay: Cyclin-Dependent Kinase Assay cdk2/cyclinE
cdk2/cyclinA = cdk2/cyclinA (Homo sapiens, UniProt P24941); assay: Cyclin-Dependent Kinase Assay cdk2/cyclinA
cdk4/D = cdk4/D (Homo sapiens, UniProt P11802); assay: Cyclin-Dependent Kinase 4 (cdk4) Assay; assay type: biochemical; settings: read-out: cdk4/D IC50
Sequence of cdk4/D (P11802 whole entry): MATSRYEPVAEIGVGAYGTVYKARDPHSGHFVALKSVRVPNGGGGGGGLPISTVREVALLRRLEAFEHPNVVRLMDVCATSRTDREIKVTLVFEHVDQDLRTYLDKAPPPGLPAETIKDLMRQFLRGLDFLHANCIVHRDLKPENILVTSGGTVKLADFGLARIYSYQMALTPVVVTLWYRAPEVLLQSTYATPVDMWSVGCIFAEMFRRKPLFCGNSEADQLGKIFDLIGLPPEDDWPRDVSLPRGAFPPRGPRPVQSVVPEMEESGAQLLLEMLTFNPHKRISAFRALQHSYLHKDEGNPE
Sequence of cdk4/D (P24385 whole entry, further chain): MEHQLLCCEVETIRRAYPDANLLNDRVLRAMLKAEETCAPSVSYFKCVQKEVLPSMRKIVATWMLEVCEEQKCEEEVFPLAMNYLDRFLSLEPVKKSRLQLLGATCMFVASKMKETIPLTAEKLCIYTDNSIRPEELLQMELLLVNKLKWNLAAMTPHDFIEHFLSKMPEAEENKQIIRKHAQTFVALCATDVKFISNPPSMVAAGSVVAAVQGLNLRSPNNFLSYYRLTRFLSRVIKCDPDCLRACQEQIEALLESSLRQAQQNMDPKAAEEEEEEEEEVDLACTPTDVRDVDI

cdc2/cyclinB = cdc2/cyclinB (Homo sapiens, UniProt P06493); assay: Cyclin-Dependent Kinase Assay cdc2/cyclinB
Sequence of cdc2/cyclinB (P06493 whole entry): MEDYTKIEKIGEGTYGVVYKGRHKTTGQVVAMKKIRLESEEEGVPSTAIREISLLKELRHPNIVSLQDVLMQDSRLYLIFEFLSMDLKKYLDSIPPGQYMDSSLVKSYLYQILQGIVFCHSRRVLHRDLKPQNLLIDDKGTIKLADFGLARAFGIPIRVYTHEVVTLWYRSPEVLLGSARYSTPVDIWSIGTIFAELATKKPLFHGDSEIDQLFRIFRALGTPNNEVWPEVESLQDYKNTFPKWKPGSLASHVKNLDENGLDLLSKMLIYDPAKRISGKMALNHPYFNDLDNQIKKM
Sequence of cdc2/cyclinB (P14635 whole entry, further chain): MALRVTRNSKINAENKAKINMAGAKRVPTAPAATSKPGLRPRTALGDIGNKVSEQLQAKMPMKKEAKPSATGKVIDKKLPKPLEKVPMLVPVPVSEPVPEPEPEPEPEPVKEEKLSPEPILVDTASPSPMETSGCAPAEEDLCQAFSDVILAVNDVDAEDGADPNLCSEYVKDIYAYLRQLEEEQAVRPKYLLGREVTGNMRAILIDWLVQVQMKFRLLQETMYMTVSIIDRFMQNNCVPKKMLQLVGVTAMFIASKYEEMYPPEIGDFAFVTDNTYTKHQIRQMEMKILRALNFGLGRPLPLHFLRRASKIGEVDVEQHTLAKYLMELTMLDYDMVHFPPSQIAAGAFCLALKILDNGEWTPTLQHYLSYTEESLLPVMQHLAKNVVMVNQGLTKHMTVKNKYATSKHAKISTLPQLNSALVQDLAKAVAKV

IC50 (Cdk5/p25) | IC50 (cdk2/cyclinE; cdk2/E IC50) | IC50 (cdk2/cyclinA; cdk2/A IC50) | IC50 (cdk4/D) | IC50 (cdc2/cyclinB) | Molecule | IC50 (cdk2/cyclinE; read-out: cdk2/E IC50) | IC50 (cdk2/cyclinA; read-out: cdk2/A IC50) | IC50 (cdc2/cyclinB; read-out: cdk1/B IC50)
8.5 nM | 20 nM | 52 nM | 46 nM | 26.5 nM | CCC(C)n1c(=O)ccc2cnc(Nc3ccc4[nH]ncc4c3)nc21 (centres unmarked) [Example 448, 8-sec-Butyl-2-(1H-indazol-5-ylamino)-8H-pyrido[2,3-d]pyrimidin-7-one] |  |  | 
200 nM | 61.7 nM | 170 nM | 710 nM | 310 nM | O=c1ccc2cnc(Nc3cc(Cl)c(O)c(Cl)c3)nc2n1C1CCCC1 [Example 540, 8-Cyclopentyl-2-(3,5-dichloro-4-hydroxy-phenylamino)-8H-pyrido[2,3-d]pyrimidin-7-one] |  |  | 
201 nM | 228 nM | 1100 nM | 510 nM | 313 nM | CCCCn1c(=O)ccc2cnc(Nc3ccc(C)c(C)c3)nc21 [Example 377, 8-Butyl-2-(3,4-dimethyl-phenylamino)-8H-pyrido[2,3-d]pyrimidin-7-one] |  |  | 
160 nM | 81 nM | 440 nM | 200 nM | 360 nM | O=c1ccc2cnc(Nc3ccc4c(c3)CCC4)nc2n1CC1CC1 [Example 587, 8-Cyclopropylmethyl-2-(indan-5-ylamino)-8H-pyrido[2,3-d]pyrimidin-7-one] |  |  | 
8 nM | 97 nM | 270 nM | 96 nM | 190 nM | CCC(C)n1c(=O)ccc2cnc(Nc3ccc(C)c(Cl)c3)nc21 (centres unmarked) [Example 467, 8-sec-Butyl-2-(3-chloro-4-methyl-phenylamino)-8H-pyrido[2,3-d]pyrimidin-7-one] |  |  | 
1140 nM | 1530 nM | 3600 nM | 3000 nM | 1760 nM | Cn1c(=O)ccc2cnc(Nc3ccc(NC(=O)OC(C)(C)C)cc3)nc21 [Example 615, [4-(8-Methyl-7-oxo-7,8-dihydro-pyrido[2,3-d]pyrimidin-2-ylamino)-phenyl]-carbamic acid tert-butyl ester] |  |  | 
280 nM | 250 nM | 760 nM | 2400 nM | 340 nM | CCC(C)n1c(=O)ccc2cnc(Nc3cc(OC)c(OC)c(OC)c3)nc21 (centres unmarked) [Example 457, 8-sec-Butyl-2-(3,4,5-trimethoxy-phenylamino)-8H-pyrido[2,3-d]pyrimidin-7-one] |  |  | 
91 nM | 85 nM | 340 nM | 90 nM | 220 nM | CCCCn1c(=O)ccc2cnc(Nc3ccc(C#N)c(NC(C)=O)c3)nc21 [Example 395, N-[5-(8-Butyl-7-oxo-7,8-dihydro-pyrido[2,3-d]pyrimidin-2-ylamino)-2-cyano-phenyl]-acetamide] |  |  | 
150 nM | 120 nM | 340 nM | 120 nM | 360 nM | CCCCn1c(=O)ccc2cnc(Nc3ccc(OC)c(F)c3)nc21 [Example 394, 8-Butyl-2-(3-fluoro-4-methoxy-phenylamino)-8H-pyrido[2,3-d]pyrimidin-7-one] |  |  | 
74 nM | 88.7 nM | 220 nM | 63.5 nM | 145 nM | CC(C)(C)OC(=O)Nc1ccc(Nc2ncc3ccc(=O)n(C4CCCC4)c3n2)cc1 [Example 535, [4-(8-Cyclopentyl-7-oxo-7,8-dihydro-pyrido[2,3-d]pyrimidin-2-ylamino)-phenyl]-carbamic acid tert-butyl ester] |  |  | 
114 nM | 520 nM | 2370 nM | 2120 nM | 429 nM | CCCn1c(=O)ccc2cnc(Nc3ccc(Br)c(C(F)(F)F)c3)nc21 [Example 314, 2-(4-Bromo-3-trifluoromethyl-phenylamino)-8-propyl-8H-pyrido[2,3-d]pyrimidin-7-one] |  |  | 
169 nM | 354 nM | 1670 nM | 1330 nM | 731 nM | CCC(CC)n1c(=O)ccc2cnc(Nc3ccc(F)cc3F)nc21 [Example 483, 2-(2,4-Difluoro-phenylamino)-8-(1-ethyl-propyl)-8H-pyrido[2,3-d]pyrimidin-7-one] |  |  | 
71 nM | 170 nM | 200 nM | 320 nM | 520 nM | CC(C)n1c(=O)ccc2cnc(Nc3ccc(C(F)(F)F)cc3)nc21 [Example 443, 8-Isopropyl-2-(4-trifluoromethyl-phenylamino)-8H-pyrido[2,3-d]pyrimidin-7-one] |  |  | 
110 nM | 170 nM | 190 nM | 140 nM | 310 nM | O=c1ccc2cnc(Nc3cccc(O)c3)nc2n1CC1CC1 [Example 578, 8-Cyclopropylmethyl-2-(3-hydroxy-phenylamino)-8H-pyrido[2,3-d]pyrimidin-7-one] |  |  | 
86 nM | 163 nM | 600 nM | 124 nM | 145 nM | CCC(CC)n1c(=O)ccc2cnc(Nc3ccc4[nH]ccc4c3)nc21 [Example 492, 8-(1-Ethyl-propyl)-2-(1H-indol-5-ylamino)-8H-pyrido[2,3-d]pyrimidin-7-one] |  |  | 
96.5 nM | 86 nM | 340 nM | 97.5 nM | 150 nM | CCCCn1c(=O)ccc2cnc(Nc3ccc4[nH]ccc4c3)nc21 [Example 378, 8-Butyl-2-(1H-indol-5-ylamino)-8H-pyrido[2,3-d]pyrimidin-7-one] |  |  | 
44.5 nM | 88 nM | 135 nM | 152 nM | 245 nM | CC(C)n1c(=O)ccc2cnc(Nc3ccc4[nH]nnc4c3)nc21 [Example 410, 2-(1H-Benzotriazol-5-ylamino)-8-isopropyl-8H-pyrido[2,3-d]pyrimidin-7-one] |  |  | 
32 nM | 53 nM | 145 nM | 214 nM | 82.5 nM | CCCn1c(=O)ccc2cnc(Nc3ccc4[nH]ncc4c3)nc21 [Example 324, 2-(1H-Indazol-5-ylamino)-8-propyl-8H-pyrido[2,3-d]pyrimidin-7-one] |  |  | 
46.5 nM | 25.3 nM | 96.5 nM | 160 nM | 45.5 nM | CCCCn1c(=O)ccc2cnc(Nc3ccc(O)c(Cl)c3)nc21 [Example 383, 8-Butyl-2-(3-chloro-4-hydroxy-phenylamino)-8H-pyrido[2,3-d]pyrimidin-7-one] |  |  | 
56 nM | 680 nM | 460 nM | 980 nM | 320 nM | CC(C)n1c(=O)ccc2cnc(Nc3ccc(F)c(C(F)(F)F)c3)nc21 [Example 407, 2-(4-Fluoro-3-trifluoromethyl-phenylamino)-8-isopropyl-8H-pyrido[2,3-d]pyrimidin-7-one] |  |  | 
23 nM | 39 nM | 230 nM | 93 nM | 73 nM | CCCCn1c(=O)ccc2cnc(Nc3ccc4c(c3)CCCC4=O)nc21 [Example 403, 8-Butyl-2-(5-oxo-5,6,7,8-tetrahydro-naphthalen-2-ylamino)-8H-pyrido[2,3-d]pyrimidin-7-one] |  |  | 

Molecule | IC50 (Cdk5/p25) | IC50 (cdk2/cyclinE; cdk2/E IC50) | IC50 (cdk2/cyclinA; cdk2/A IC50) | IC50 (cdk4/D) | IC50 (cdc2/cyclinB) | IC50 (cdk2/cyclinE; read-out: cdk2/E IC50) | IC50 (cdk2/cyclinA; read-out: cdk2/A IC50) | IC50 (cdc2/cyclinB; read-out: cdk1/B IC50)
2-(4-Chloro-3-methyl-phenylamino)-8-isopropyl-8H-pyrido[2,3-d]pyrimidin-7-one [Example 416] | 38 nM |  |  | 180 nM |  | 220 nM | 350 nM | 280 nM
